Results taken from publication PMC3025356, “Mechanism of the Ca^2+-Dependent Interaction between S100A4 and Tail Fragments of Nonmuscle Myosin Heavy Chain IIA” (Journal of Molecular Biology, 2011).
Read-outs that look alike come from different tables or passages of the source.

Assays:
[1] = Stopped-flow tyrosine fluorescence, Ca^2+ dissociation from S100A4 constructs; format: binding
Method: (§1) Stopped-flow measurements were carried out using an SX18-MV apparatus (Applied Photophysics Ltd., Leatherhead, UK) with a dead time of 1.5 ms.[40] Records were generally captured on a logarithmic time base. Absorption (turbidity) measurements were usually recorded using a 10-mm pathlength, while fluorescence was recorded with a 2-mm pathlength for excitation and emission. The stated concentrations of components refer to the reaction chamber after mixing, unless otherwise indicated. Tyrosine fluorescence was excited at 280 nm, and the emission was collected through a UG11 bandpass filter plus a 305-nm longpass filter.[18] Fluorescein fluorescence was excited at 480 nm, and the emission was detected through a 515-nm longpass filter. Quin-2 fluorescence was measured by excitation at 336 nm, and emission was collected with a 455-nm longpass filter. For simultaneous recording of light scatter, a second channel was monitored through a UG11 filter. Rate constants were obtained by fitting to single-exponential or double-exponential functions using Kaleidagraph (Synergy Software) or Applied Photophysics Pro-Data software. Modeling of kinetic schemes was performed using Berkeley Madonna software.
Dissociation of Ca2+ from wild type S100A4 (black), Y19F mutant (blue) and Y75F mutant (red) monitored by tyrosine fluorescence. 13 M of each S100A4 construct plus 100 µM Ca2+ was mixed with 200 µM EGTA (reaction chamber concentrations) and the tyrosine fluorescence monitored. The buffer was 20 mM NaCl, 10 mM HEPES, 2 mM DTT at pH 7.5 and 20 °C. Fits to a single exponential function yielded rate constants of 20 s-1, 113 s-1 and 45 s-1 for wild-type, Y19F mutant and Y75F mutant respectively. (d) Dissociation of Ca2+ from wild type S100A4 (black), E33Q mutant (blue) and D63N mutant (red) monitored by tyrosine fluorescence. 13 M of each S100A4 construct plus 15 M Ca2+ was mixed with 200 M EGTA (reaction chamber concentrations) and the tyrosine fluorescence monitored. Fits to a single exponential function yielded rate constants of 22 s-1 and 49 s-1 for wild-type and E33Q construct respectively, while that […]
The records for the mutants were vertically offset for clarity in both […]

[2] = Isothermal titration calorimetry of Ca^2+ binding to S100A4 constructs
Method: Fig. 2 ITC records for Ca^2+ binding to S100A4 constructs: (a) 75 μM wild type at 30 °C; (b) 75 μM wild type at 10 °C; (c) 75 μM E33Q construct at 30 °C; (d) 300 μM D63N construct at 30 °C. For mutant constructs data at 10 °C, see Fig. S1. All preparations were dialysed against the same buffer of 20 mM NaCl, 10 mM Hepes, and 2 mM DTT (pH 7.5).
ITC data were collected using a VP-ITC microcalorimeter (MicroCal Ltd., Northampton, MA) and analysed by fitting to a single-site binding equation or a two-site binding equation using MicroCal Origin software.

[3] = Stopped-flow Quin-2 fluorescence, Ca^2+ dissociation from / binding to S100A4 constructs (no target); details: single exponential fit, no target
From the text: In order to increase the signal-to-noise ratio of the Ca^2+ dissociation transients, we used Quin-2 as combined fluorescent indicator and high-affinity chelator.[19,20] These measurements confirmed that Ca^2+ dissociated from wild-type protein with a rate constant of 16 s^− 1 (Fig. 3a; cf. 20 s^− 1 for the tyrosine signal). Given the poor signal-to-noise ratio of the tyrosine signal, the difference is barely significant but may reflect the fact that the Quin-2 signal represents at least a two-step sequential reaction (Ca^2+ dissociation from S100AS4, followed by rapid binding to Quin-2).
Fig. 3 (a) Dissociation of Ca^2+ from wild-type S100A4 (black), E33Q mutant (blue), and D63N mutant (red), as monitored by Quin-2 fluorescence. […] The records for the mutants were vertically offset for clarity. (b) Ca^2+ binding to S100A4 as determined from the amplitude of the resolved transient (k ≈ 20 s^− 1) when 6.5 μM S100A4 was preincubated with various added [Ca^2+] and then mixed with 100 μM Quin-2. The amplitude was converted into a bound concentration from an independent calibration using the same Quin-2 solution and known free [Ca^2+]. […] While either model could account for the data, the measured stoichiometry from ITC (Table 1) favors the cooperative model.
as §1

[4] = target: T1, Δ10-S100A4 (Homo sapiens, UniProt P26447); assay: NMR ^1H,^15N HSQC titration of Δ10-S100A4 with myosin peptides; format: binding
T1 construct: truncated Δ10-S100A4, which lacks 10 C-terminal residues; made in house; host or cells: Escherichia coli (M9 minimal medium, 15N labelling)
T1 sequence (P26447 1-91 limits assumed, stated change not applied): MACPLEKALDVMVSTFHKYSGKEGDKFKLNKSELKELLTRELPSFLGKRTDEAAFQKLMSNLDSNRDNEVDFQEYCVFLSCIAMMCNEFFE

[5] = 13 μM S100A4 + 100 μM Ca^2+ mixed with 200 μM EGTA, 20 mM NaCl, 10 mM Hepes, 2 mM DTT, pH 7.5, 20 °C
[6] = 10 °C and 30 °C, read-out: Kd for Ca^2+
[7] = 10 °C, 75 μM protein (D63N 300 μM), 20 mM NaCl, 10 mM Hepes, 2 mM DTT, pH 7.5
[8] = 30 °C, 75 μM protein (D63N 300 μM), 20 mM NaCl, 10 mM Hepes, 2 mM DTT, pH 7.5
[9] = first site, Ca^2+ binding, 30 °C, 75 μM protein (D63N 300 μM), 20 mM NaCl, 10 mM Hepes, 2 mM DTT, pH 7.5, read-out: K1d
[10] = first site, 10 °C, wild type and E33Q cooperative, read-out: K1d

Kd [2, 6] [µM]	n1 (Ca^2+ per monomer) [2, 7] [Ca^2+ per monomer]	n1 (Ca^2+ per monomer) [2, 8] [Ca^2+ per monomer]	Kd [2, 9] [µM]	Kd [2, 10] [µM]	Ca^2+ dissociation rate constant (Quin-2) [3] [s^− 1]	Substance	Ca^2+ dissociation rate constant (tyrosine) [1, 5] [s^− 1]	other results
–	–	–	–	–	–	Y75F: S100A4 mutant, tyrosine 75 to phenylalanine	45	–
1 to 10	0.96 ± 0.09	0.33 ± 0.03	10.9 ± 1.9	~1	35	E33Q: S100A4 mutant compromised in the EF1 Ca^2+ binding loop	–	Ca^2+ dissociation rate constant (tyrosine) ([1]; 13 μM S100A4 + 15 μM Ca^2+ mixed with 200 μM EGTA): 49 s^− 1
–	–	–	–	–	–	M15^C: myosin peptide G1924-G1938, acetylated N-terminus, amidated C-terminus (Ac-GDLPFVVPRRMARKG-NH2)	–	NMR exchange regime ([4]; 0.2 mM Δ10-S100A4, Ca^2+, 35 °C): fast exchange; affinity by NMR ([4]; 0.2 mM Δ10-S100A4, up to 9-fold molar excess of peptide): too low to be measured by NMR
65 to 70	0.44 ± 0.01	0.54 ± 0.01	68 ± 1	65 ± 3	500	D63N: S100A4 mutant compromised in the EF2 Ca^2+ binding loop	–	reduction in Ca^2+ affinity ([2]; compromised EF2 site, as suggested by ITC): 30 -fold
–	–	–	–	–	–	Δ10-S100A4: truncated S100A4, lacks 10 C-terminal residues	–	interaction in the absence of Ca^2+ ([4]; absence of Ca^2+): No interaction was observed
–	–	–	–	–	–	Y19F: S100A4 mutant, tyrosine 19 to phenylalanine	113	–
